Experimental data taken from patent publication US12448369B2 (Edgewise Therapeutics, Inc., priority 2023, dated 2025).

Columns and labels:
[1] = tested on: Rabbit Psoas myofibrils (skeletal myosin ATPase); assay: Myofibril ATPase assay, rabbit psoas (skeletal) myofibrils; type: biochemical; details: rabbit psoas myofibrils
How it was run: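 Readout: A340 decline from NADH oxidation, PK/LDH-coupled to ADP release; kinetic reads over 75 min. Buffer: pCa (PIPES, CaCl2, EGTA), pH 7.0. Linear-regression slopes vs vehicle, 4PL fit; reported as concentration giving 75% (Y75) or 125% (Y125) of vehicle activity.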

[2] = tested on: Porcine atria myofibrils (atrial myosin ATPase); assay: Myofibril ATPase assay, porcine atria myofibrils; type: biochemical; details: porcine atria myofibrils
How it was run: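 Coupled PK-LDH readout, NADH loss at 340 nm, kinetic 75 min. Porcine atria myofibrils, pCa buffer (PIPES/CaCl2/EGTA, pH 7.0). Slopes (mAU/min) normalized to vehicle = 100%, 4-parameter fit; Y75 or Y125 reported.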

[3] = molecular target: T1, Porcine ventricle myofibrils (ventricular myosin ATPase) (Sus scrofa, UniProt P79293); assay: Myofibril ATPase assay, porcine ventricle myofibrils; type: biochemical, porcine (Yucatan minipigs); details: porcine ventricle myofibrils
T1 construct: Myofibrils from porcine cardiac muscle was isolated from the left ventricle of Yucatan minipigs; tissue Exemplar Genetics; host or cells: left ventricle of Yucatan minipigs, myofibrils prepared in house
How it was run: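 In a coupled enzyme format, ADP from myofibril ATPase drives NADH oxidation, monitored kinetically at 340 nm for 75 min using minipig ventricle myofibrils. Effective concentrations giving 25% loss or gain of activity relative to vehicle were calculated from 4-parameter fits.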

[4] = ‡ Y125 value, not a Y75 value (125% activity relative to no compound)
[5] = Y75 value (75% activity relative to no compound)

T1 sequence (P79293 whole entry): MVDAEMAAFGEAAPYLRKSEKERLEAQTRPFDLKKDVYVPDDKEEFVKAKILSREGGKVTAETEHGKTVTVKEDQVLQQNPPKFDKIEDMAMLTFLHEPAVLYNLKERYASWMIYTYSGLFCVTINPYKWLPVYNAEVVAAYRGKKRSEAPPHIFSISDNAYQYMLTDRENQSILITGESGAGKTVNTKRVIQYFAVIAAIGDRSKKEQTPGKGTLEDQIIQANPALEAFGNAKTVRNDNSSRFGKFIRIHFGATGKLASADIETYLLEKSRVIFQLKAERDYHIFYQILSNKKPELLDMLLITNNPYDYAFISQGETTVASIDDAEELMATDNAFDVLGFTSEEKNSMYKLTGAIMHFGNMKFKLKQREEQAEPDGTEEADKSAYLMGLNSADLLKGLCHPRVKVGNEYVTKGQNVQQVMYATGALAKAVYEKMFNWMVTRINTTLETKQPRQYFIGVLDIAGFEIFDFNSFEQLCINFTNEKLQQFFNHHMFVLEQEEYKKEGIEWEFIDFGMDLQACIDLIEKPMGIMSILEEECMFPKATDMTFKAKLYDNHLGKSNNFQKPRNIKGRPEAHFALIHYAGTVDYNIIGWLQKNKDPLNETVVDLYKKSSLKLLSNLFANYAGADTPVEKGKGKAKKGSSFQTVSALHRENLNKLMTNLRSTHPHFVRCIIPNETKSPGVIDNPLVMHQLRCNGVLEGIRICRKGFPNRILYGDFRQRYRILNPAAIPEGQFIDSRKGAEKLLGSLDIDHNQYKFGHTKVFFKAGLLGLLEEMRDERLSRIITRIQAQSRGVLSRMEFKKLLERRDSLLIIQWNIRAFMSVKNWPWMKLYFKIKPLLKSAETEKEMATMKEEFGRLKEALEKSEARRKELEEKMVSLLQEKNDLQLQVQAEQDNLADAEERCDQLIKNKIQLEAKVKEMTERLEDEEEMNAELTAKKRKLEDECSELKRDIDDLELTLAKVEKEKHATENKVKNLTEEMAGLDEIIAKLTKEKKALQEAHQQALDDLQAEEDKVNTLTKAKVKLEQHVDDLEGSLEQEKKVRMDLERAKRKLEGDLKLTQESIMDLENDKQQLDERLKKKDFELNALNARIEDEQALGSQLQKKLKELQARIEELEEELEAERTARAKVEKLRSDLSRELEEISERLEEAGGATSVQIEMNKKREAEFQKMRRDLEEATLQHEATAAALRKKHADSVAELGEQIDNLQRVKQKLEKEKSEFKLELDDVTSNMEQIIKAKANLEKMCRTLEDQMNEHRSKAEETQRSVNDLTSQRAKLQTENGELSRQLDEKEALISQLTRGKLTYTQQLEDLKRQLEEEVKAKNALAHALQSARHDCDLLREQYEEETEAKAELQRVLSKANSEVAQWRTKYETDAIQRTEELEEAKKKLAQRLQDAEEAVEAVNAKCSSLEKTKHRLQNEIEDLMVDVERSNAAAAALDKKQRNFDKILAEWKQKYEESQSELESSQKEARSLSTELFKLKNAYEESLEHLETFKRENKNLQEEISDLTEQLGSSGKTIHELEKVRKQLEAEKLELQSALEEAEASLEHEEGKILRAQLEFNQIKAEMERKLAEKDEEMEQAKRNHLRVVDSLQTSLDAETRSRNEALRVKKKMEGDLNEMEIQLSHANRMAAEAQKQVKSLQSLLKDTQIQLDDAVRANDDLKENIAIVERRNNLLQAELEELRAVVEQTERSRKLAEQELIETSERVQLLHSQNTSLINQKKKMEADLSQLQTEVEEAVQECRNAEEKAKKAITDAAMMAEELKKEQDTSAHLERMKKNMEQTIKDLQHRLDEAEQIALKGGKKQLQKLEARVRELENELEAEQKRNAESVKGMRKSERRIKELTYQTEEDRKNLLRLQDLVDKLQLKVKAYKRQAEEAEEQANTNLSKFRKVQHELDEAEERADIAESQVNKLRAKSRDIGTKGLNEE

Structure (SMILES) | Skeletal EC25 ([1]; Y75 value (no ‡ mark)) [µM] | Atrial EC25 ([2]; Y75 value (no ‡ mark)) [nM] | Ventricular EC25 ([3]; Y75 value (no ‡ mark)) [µM] | Skeletal EC25 [1, 4] | Skeletal EC25 ([1]; Y75 value) [µM] | Atrial EC25 [2, 5] [nM] | Ventricular EC25 ([3]; Y75 value) [µM] | Ventricular EC25 [3, 4]
Cc1c(CC(=O)N[C@H](CO)c2ccc(C#N)cc2F)c(=O)[nH]c2ccc(F)c(C3CC3)c12 [compound 71] | 0.23 | 1100 | 8.50 |  |  |  |  | 
C[C@H](NC(=O)[C@H](C)c1c(C(F)(F)F)c2cnccc2[nH]c1=O)c1ccc(F)cc1F (single isomer, unassigned) [compound 427] |  |  |  |  | 2.02 | 2530 | 22.60 | 
C[C@H](NC(=O)Cc1cc2c(F)cccc2[nH]c1=O)c1ccc(F)cc1F [compound 131] | 0.02 | 70 | 0.81 |  |  |  |  | 
Cc1nccc2[nH]c(=O)c(CC(=O)N[C@@H](c3ccc(F)cc3F)C(C)(C)O)c(C)c12 (single isomer, unassigned) [compound 271] |  |  |  |  | 100.00 | 100000 | 100.00 | 
C[C@H](NC(=O)Cc1c(C(F)(F)F)c2c(C3CC3)nccc2[nH]c1=O)c1ccc(F)cc1F [compound 421] |  |  |  |  | 0.20 | 100000 | 100.00 | 
Cc1c(CC(=O)N[C@H](CO)c2ccc(C#N)cc2F)c(=O)[nH]c2ccnc(C#N)c12 (single isomer, unassigned) [compound 241] |  |  |  |  | 0.17 | 690 | 4.21 | 
C[C@H](NC(=O)Cc1cc2c(C(F)(F)F)nccc2[nH]c1=O)c1ccc(F)cc1F [compound 435] |  |  |  |  | 0.38 | 32520 | 19.10 | 
Cc1c([C@@H](C)C(=O)N[C@@H](C)c2ccc(F)cc2F)c(=O)[nH]c2ccnc(F)c12 (single isomer, unassigned) [compound 376] |  |  |  |  | 0.03 | 160 | 1.33 | 
COc1ccc([C@H](C)NC(=O)Cc2c(C)c3c(C)nccc3[nH]c2=O)cn1 (single isomer, unassigned) [compound 291] |  |  |  |  | 100.00 | 100000 | 100.00 | 
Cc1c(CC(=O)N[C@@H](C)c2ccc(F)cn2)c(=O)[nH]c2cccc(F)c12 [compound 44] | 0.05 | 210 | 1.97 |  |  |  |  | 
Cc1nccc2[nH]c(=O)c(CC(=O)N[C@@H](C)c3ncc(F)cc3F)c(C)c12 (single isomer, unassigned) [compound 379] |  |  |  |  | 0.36 | 2360 | 5.81 | 
C[C@@H](NC(=O)Cc1c(C2CC2)c2cc(F)ccc2[nH]c1=O)c1ccc(C#N)cc1F [compound 73] | 0.02 | 100000 | 100.00 |  |  |  |  | 
Cc1c(CC(=O)N[C@H](C)c2ncc(C#N)cc2F)c(=O)[nH]c2ccc(OC(F)(F)F)nc12 [compound 455] |  |  |  |  | 5.74 | 7110 | 100.00 | 
Cc1nccc2[nH]c(=O)c(CC(=O)N[C@H](CO)c3cccnc3)c(C)c12 (single isomer, unassigned) [compound 311] |  |  |  |  | 100.00 | 100000 | 100.00 | 
Cc1c(CC(=O)N[C@@H](C)c2ncc(C#N)cc2F)c(=O)[nH]c2ccc(OC(F)(F)F)nc12 [compound 456] |  |  |  |  | 0.53 | 660 | 3.69 | 
Cc1c(CC(=O)N[C@@H](C)c2ccc(F)cc2F)c(=O)[nH]c2ccnc(Cl)c12 [compound 402] |  |  |  |  | 0.02 | 40 | 0.19 | 
COc1ccc([C@@H](C)NC(=O)Cc2c(C)c3c(C)nccc3[nH]c2=O)cc1 (single isomer, unassigned) [compound 286] |  |  |  |  | 8.58 | 45610 | 100.00 | 
C[C@H](NC(=O)Cc1c(C2CC2)c2cnccc2[nH]c1=O)c1ccc(C#N)cn1 [compound 141] |  |  |  |  | 8.74 | 100000 | 100.00 | 
Cc1c(CC(=O)N[C@@H](C)c2ccc(F)cc2F)c(=O)[nH]c2ccnc(Nc3ccccc3)c12 [compound 278] |  |  |  |  | 2.73 | 17260 | 100.00 | 

Now from value to molecule:

Skeletal EC25 ([1]; Y75 value (no ‡ mark)) [µM] | Atrial EC25 ([2]; Y75 value (no ‡ mark)) [nM] | Ventricular EC25 ([3]; Y75 value (no ‡ mark)) [µM] | Skeletal EC25 [1, 4] | Skeletal EC25 ([1]; Y75 value) [µM] | Atrial EC25 [2, 5] [nM] | Ventricular EC25 ([3]; Y75 value) [µM] | Ventricular EC25 [3, 4] | Structure (SMILES)
0.05 | 60 | 0.09 |  |  |  |  |  | Cc1c(F)ccc2[nH]c(=O)c(CC(=O)N[C@@H](C)c3ncc(F)cc3F)c(C#N)c12 [compound 1148]
 | 190 | 0.74 | 100.00‡ μM |  |  |  |  | Cc1c(C2(C(=O)N[C@H](C)c3ncc(C#N)cc3F)CC2)c(=O)[nH]c2ccc(F)c(C#N)c12 (single isomer, unassigned) [compound 2523]
0.50 | 210 | 100.00 |  |  |  |  |  | C[C@@H](NC(=O)Cc1c(C2CC2)c2cc(F)ccc2[nH]c1=O)c1ncc(C#N)cn1 (single isomer, unassigned) [compound 2063]
0.06 | 400 | 1.07 |  |  |  |  |  | Cc1c(CC(=O)N[C@@H](C)c2cnc(C#N)cn2)c(=O)[nH]c2cc(F)c(F)cc12 [compound 1103]
0.03 | 120 | 0.15 |  |  |  |  |  | Cc1c(CC(=O)N[C@@H](C)c2ncc(C#N)cc2F)c(=O)[nH]c2ccc(F)cc12 [compound 1107]
 |  |  |  | 7.59 | 1570 | 11.59 |  | Cc1nc(C#N)cnc1[C@@H](C)NC(=O)Cc1c(C)c2c(C)nccc2[nH]c1=O [compound 491]
2.08 | 1290 | 15.11 |  |  |  |  |  | Cc1c(C2(C(=O)N[C@H](C)c3ncc(C#N)cn3)CC2)c(=O)[nH]c2ccc(F)c(C#N)c12 (single isomer, unassigned) [compound 2531]
100.00 | 100000 |  |  |  |  |  | 100.00‡ μM | C[C@H](NC(=O)C(F)(F)c1cc2c(F)c(F)ccc2[nH]c1=O)c1cccc(C#N)n1 (single isomer, unassigned) [compound 2572]
0.24 | 300 | 1.13 |  |  |  |  |  | Cc1c(C(F)(F)C(=O)N[C@@H](C)c2cnc(C#N)cn2)c(=O)[nH]c2ccc(F)cc12 (single isomer, unassigned) [compound 4828]
0.07 | 140 | 0.21 |  |  |  |  |  | Cc1c(F)ccc2[nH]c(=O)c(C(F)(F)C(=O)N[C@@H](C)c3ncc(C#N)cc3F)c(C#N)c12 (single isomer, unassigned) [compound 2520]
0.33 | 340 | 1.07 |  |  |  |  |  | Cc1nc(C#N)cnc1[C@@H](C)NC(=O)C(F)(F)c1c(C)c2cc(F)ccc2[nH]c1=O (single isomer, unassigned) [compound 2567]
 | 15930 | 100.00 | 37.90‡ μM |  |  |  |  | C[C@@H](NC(=O)C1(c2cc3cc(F)ccc3[nH]c2=O)CC1)c1cccc(C#N)n1 (single isomer, unassigned) [compound 2534]
0.44 | 1500 | 1.7 |  |  |  |  |  | Cc1cc(C#N)ncc1[C@H](C)NC(=O)Cc1c(C)c2c(C)c(F)ccc2[nH]c1=O [compound 1045]
100.00 | 53690 | 89.23 |  |  |  |  |  | Cc1c(CC(=O)N[C@@H](C)c2ccc(C#N)cn2)c(=O)[nH]c2cc(F)ccc12 [compound 1073]
6.04 | 3660 | 7.27 |  |  |  |  |  | C[C@@H](NC(=O)C(F)(F)c1cc2c(F)c(F)ccc2[nH]c1=O)c1cc(C#N)ccn1 (single isomer, unassigned) [compound 2557]
 |  |  |  | 7.32 | 4030 | 16.67 |  | Cc1nccc2[nH]c(=O)c(CC(=O)N[C@@H](C)c3ncc(C#N)cn3)c(C)c12 [compound 483]
0.28 | 920 | 3.58 |  |  |  |  |  | Cc1c(C(F)(F)C(=O)N[C@H](C)c2ncc(C#N)cn2)c(=O)[nH]c2cccc(C#N)c12 (single isomer, unassigned) [compound 4838]
 | 1530 | 33.47 | 100.00‡ μM |  |  |  |  | Cc1c(F)ccc2[nH]c(=O)c(C(F)(F)C(=O)N[C@@H](C)c3ncc(C#N)cn3)c(C#N)c12 (single isomer, unassigned) [compound 2512]
